Data from US6750235B1, “Pramipexole as a treatment for cocaine craving” (The General Hospital Corporation, priority 1999, dated 2004).

Assay: Case report: treatment of cocaine craving using pramipexole (patient)
Assay type: in vivo, human
Conditions: one patient; lamotrigine up to 200 mg, before pramipexole was added

SMILES: Nc1nnc(-c2cccc(Cl)c2Cl)c(N)n1 [lamotrigine]
- mood (depression): modest improvement
